Where two headings read alike, the source gives them in different places.
Tests used:
Format in all cases: cell-based
[1] = test system: primary human total T-cells; test: T-cell activation assessed by CD69 expression
From the text: (§1) Peripheral blood mononuclear cells (PBMC) were obtained either: 1) by using Ficoll-Paque™ (GE Healthcare) for separation of peripheral blood hematopoietic cells from buffy coats of healthy human donors; or 2) directly from FeukoPak donations. Total human primary T-cells were isolated from the PMBCs utilizing negative selection with commercial kits following the manufacturer's protocol (Miltenyi Catalog #130-096-535 (i.e., cocktail of antibodies against surface markers CD14, CD15, CD16, CD19, CD34, CD36, CD56, CD123 and CD235a are incubated with the PBMCs before passing the samples by magnetic beads for removal of cells expressing those surface markers) or StemCells Catalog #17951) to yield >95% CD3+ cells as assessed by flow cytometry. For measurement of cell proliferation, cells were labeled with Cell Trace Violet (Invitrogen) following manufacturer's protocol prior to activation by stimulation with anti-CD3 antibody alone or in combination with anti-CD28 antibody. The Cbl-b inhibitor was added to 1×10^5 cells per well at multiple concentrations (e.g., 10 μM, 1.11 μM, or 0.123 μM) with a final DMSO concentration of <0.1%. The plate was incubated for one hour at 37° C. in 5% CO2. Following incubation with the Cbl-b inhibitor, primary human total T-cells were stimulated with either plate bound anti-CD3 antibody (OKT3) alone or plate bound anti-CD3 antibody (OKT3) with soluble anti-CD28 antibody (28.2) (Life Technologies). To prepare plates with plate bound anti-CD3 antibody (OKT3), 96-well round bottom tissue culture plates were coated with 100 μl of anti-CD3 antibody (OKT3) at 10 μg/mL for 4 hours at 37° C. 5% CO2 in phosphate buffered saline (PBS). The plates were washed with PBS prior to adding the cells with or without soluble anti-CD28 antibody (28.2) to each well at a final concentration of 5 μg/mL. Cells were stimulated for 48 hours prior to harvesting the cell free supernatant and staining the cell population for surface marker assessment by flow cytometry. Supernatants were analyzed for cytokine secretion (e.g., GM-CSF, IFNγ and TNFα) by ELISA (R&D Systems, Peprotech or Life Technologies) or Luminex multiplex kits (Procarta Life Technologies) following manufacturer's protocol. Cells were stained with anti-CD69 (BD Biosciences) to assess levels of surface markers of activation. Proliferation was measured by flow cytometry and data was analyzed with FlowJo v7.6.5 or v10. Readouts were reported as fold change over baseline. In some embodiments, baseline was the measurement obtained from total human T-cells stimulated with anti-CD3 antibody alone, wherein the cells were not incubated with a Cbl-b inhibitor. In some embodiments, baseline was the measurement obtained from total human T-cells stimulated with anti-CD3 antibody and anti-CD28 antibody, where the cells were not incubated with a Cbl-b inhibitor.
(§2) Cbl-b inhibitors were tested to determine their ability to induce or enhance secretion of cytokines from T-cells (e.g., GM-CSF, IFNγ and TNFα) and/or surface expression of cell surface markers on T-cells (e.g., CD69) that is indicative of T-cell activation. Cbl-b inhibitors were also tested to determine their ability to induce or enhance T-cell proliferation. Cbl-b inhibitors were tested for their effects on T-cell activation in the presence of costimulation and where conditions were suboptimal for priming.
(§3) Readouts for T-cell activation were reported as fold change over baseline. Baseline for this study was the measurement obtained from total human T-cells stimulated with anti-CD3 antibody alone or anti-CD3 antibody in combination with soluble anti-CD28 antibody, where the cells were not incubated with a Cbl-b inhibitor. For T-cells stimulated with anti-CD3/anti-CD28 or with anti-CD3 alone changes greater than 1,2-fold over baseline for % positive CD69 staining and greater than 2-fold over baseline for % total proliferating cells were considered a significant and positive response (Table 4a). […]

primary human NK cells = test: NK cell activation assessed by cytokine secretion (coculture with K562 NucRed target cells); conditions: for fold induction at 0.625 µM: 0.625 μM compound; for fold induction at 2.5 µM: 2.5 μM compound
Outline: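 Primary NK cells from donor PBMC, IL-2 (60 ng/mL) overnight, then Cbl-b inhibitor (e.g. 10, 1 or 0.1 μM; DMSO <0.1%) for 1 h before 6 h coculture with K562 NucRed at effector:target ratios such as 5:1, 1:1 or 1:5. Supernatant IFNγ, TNFα, MIP1β measured by ELISA or Luminex; fold change over inhibitor-free baseline, >2.0-fold positive.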

T-cell = test: CD25 cell surface staining on T-cells stimulated with anti-CD3 antibody alone (Biological Example 2); conditions: primary human total T-cells, baseline = anti-CD3/anti-CD28 stimulated cells without inhibitor, read-out: CD25 staining, Anti-CD3 stimulation, fold change over baseline; for fold induction at 1 µM: 1 μM compound; for fold induction at 8 µM: 8 μM compound
[2] = test system: primary human total T-cells; test: T-cell activation assessed by cytokine secretion (GM-CSF, IFNγ, TNFα)
From the text: as §1, §2, §3

[3] = CD3/CD28 stimulation, CD4 T-cells, read-out: % CD69+ (CD4)
[4] = CD3/CD28 stimulation, CD8 T-cells, read-out: % CD69+ (CD8)
[5] = CD3 alone stimulation, CD4 T-cells, read-out: % CD69+ (CD4)
[6] = CD3 alone stimulation, CD8 T-cells, read-out: % CD69+ (CD8)
[7] = K562, NK cells cocultured with K562 NucRed, 1:1 E/T, read-out: IFNγ secretion, fold change over baseline
[8] = K562, NK cells cocultured with K562 NucRed, 1:1 E/T, read-out: TNFα secretion, fold change over baseline
[9] = K562, NK cells cocultured with K562 NucRed, 1:1 E/T, 10 μM compound, read-out: IFNγ secretion, fold change over baseline
[10] = K562, NK cells cocultured with K562 NucRed, 1:1 E/T, 10 μM compound, read-out: TNFα secretion, fold change over baseline
[11] = CD3/CD28 stimulation, read-out: GM-CSF secretion
[12] = CD3/CD28 stimulation, read-out: IFNγ secretion
[13] = CD3/CD28 stimulation, read-out: TNFα secretion
[14] = CD3 alone stimulation, read-out: GM-CSF secretion
[15] = CD3 alone stimulation, read-out: IFNγ secretion
[16] = CD3 alone stimulation, read-out: TNFα secretion
[17] = K562, 1:1 E/T, read-out: IFNγ secretion
[18] = K562, 1:1 E/T, read-out: MIP1β secretion
[19] = K562, 1:1 E/T, read-out: TNFα secretion
[20] = K562, 1:1 E/T, 10 μM, read-out: IFNγ secretion
[21] = K562, 1:1 E/T, 10 μM, read-out: MIP1β secretion
[22] = K562, 1:1 E/T, 10 μM, read-out: TNFα secretion
[23] = K562, 5:1 E/T, read-out: IFNγ secretion
[24] = K562, 5:1 E/T, read-out: MIP1β secretion
[25] = K562, 5:1 E/T, read-out: TNFα secretion
[26] = K562, 5:1 E/T, 10 μM, read-out: IFNγ secretion
[27] = K562, 5:1 E/T, 10 μM, read-out: MIP1β secretion
[28] = K562, 5:1 E/T, 10 μM, read-out: TNFα secretion

Row | SMILES | fold induction at 1.11 µM [1, 3] | fold induction at 10 µM [1, 3] | fold induction at 1.11 µM [1, 4] | fold induction at 10 µM [1, 4] | fold induction at 1.11 µM [1, 5] | fold induction at 10 µM [1, 5] | fold induction at 1.11 µM [1, 6] | fold induction at 10 µM [1, 6] | fold induction at 0.625 µM (primary human NK cells; [7]) | fold induction at 0.625 µM (primary human NK cells; [8]) | fold induction at 2.5 µM (primary human NK cells; [7]) | fold induction at 2.5 µM (primary human NK cells; [8]) | fold induction at 10 µM (primary human NK cells; [9]) | fold induction at 10 µM (primary human NK cells; [10]) | fold induction at 1.11 µM [2, 11] | fold induction at 1.11 µM [2, 12] | fold induction at 1.11 µM [2, 13] | fold induction at 10 µM [2, 11] | fold induction at 10 µM [2, 12] | fold induction at 10 µM [2, 13] | other results
1 | Cn1cnnc1CC1(c2cccc(N3Cc4c(cc(CN5CC[C@H](C#N)C5)cc4C(F)(F)F)C3=O)c2)COC1 [Compound 422, (S)-1-((2-(3-(3-((4-methyl-4H-1,2,4-triazol-3-yl)methyl)oxetan-3-yl)phenyl)-3-oxo-7-(trifluoromethyl)isoindolin-5-yl)methyl)pyrrolidine-3-carbonitrile] | 1.2 to 1.4 | 1.4 to 1.6 | 1.2 to 1.4 | 1.2 to 1.4 | > 1.6 | > 1.6 | 1.2 to 1.4 | 1.4 to 1.6 | 1.01 to 2 | 1.01 to 2 | 2.01 to 5 | 1.01 to 2 | 2.01 to 5 | 2.01 to 5 | 2.01 to 4 | 3.01 to 4 | 2.01 to 4 | > 4 | > 4 | 2.01 to 4 | fold induction at 1 µM (T-cell): > 1; fold induction at 8 µM (T-cell): > 1; fold induction at 1.11 µM [2, 14]: 2.01 to 4; fold induction at 1.11 µM [2, 15]: < 2; fold induction at 1.11 µM [2, 16]: ≤ 1.5; fold induction at 10 µM [2, 14]: 2.01 to 4; fold induction at 10 µM [2, 15]: 3.01 to 4; fold induction at 10 µM [2, 16]: 1.51 to 2
2 | C[C@H](Cc1nncn1C)c1cccc(N2Cc3c(cc(CN4CC[C@H](F)C4)cc3C(F)(F)F)C2=O)c1 [Compound 399, 6-(((S)-3-fluoropyrrolidin-1-yl)methyl)-2-(3-((R)-1-(4-methyl-4H-1,2,4-triazol-3-yl)propan-2-yl)phenyl)-4-(trifluoromethyl)isoindolin-1-one] | > 1.6 | > 1.6 | 1.2 to 1.4 | 1.2 to 1.4 | > 1.6 | > 1.6 | 1.4 to 1.6 | 1.4 to 1.6 | 2.01 to 5 | 2.01 to 5 | > 5 | > 5 | > 5 | > 5 | > 4 | > 4 | 2.01 to 4 | > 4 | > 4 | 2.01 to 4 | fold induction at 1 µM (primary human NK cells; [17]): 2.01 to 5; fold induction at 1 µM (primary human NK cells; [18]): 1.01 to 2; fold induction at 1 µM (primary human NK cells; [19]): 2.01 to 5; fold induction at 10 µM (primary human NK cells; [20]): > 5; fold induction at 10 µM (primary human NK cells; [21]): 1.01 to 2; fold induction at 10 µM (primary human NK cells; [22]): 2.01 to 5; fold induction at 1 µM (primary human NK cells; [23]): 2.01 to 5; fold induction at 1 µM (primary human NK cells; [24]): 1.01 to 2; fold induction at 1 µM (primary human NK cells; [25]): 2.01 to 5; fold induction at 10 µM (primary human NK cells; [26]): > 5; fold induction at 10 µM (primary human NK cells; [27]): 1.01 to 2; fold induction at 10 µM (primary human NK cells; [28]): > 5; fold induction at 1 µM (T-cell): > 1; fold induction at 8 µM (T-cell): > 1; fold induction at 1.11 µM [2, 14]: 2.01 to 4; fold induction at 1.11 µM [2, 15]: 3.01 to 4; fold induction at 1.11 µM [2, 16]: 2.01 to 4; fold induction at 10 µM [2, 14]: > 4; fold induction at 10 µM [2, 15]: > 4; fold induction at 10 µM [2, 16]: 1.51 to 2
3 | C[C@H](Cc1nncn1C)c1cccc(N2Cc3c(cccc3C(F)(F)F)C2=O)c1 [Compound 255a, (R)-2-(3-(1-(4-methyl-4H-1,2,4-triazol-3-yl)propan-2-yl)phenyl)-4-(trifluoromethyl)isoindolin-1-one] | ≤ 1.2 | 1.2 to 1.4 | ≤ 1.2 | 1.2 to 1.4 | ≤ 1.2 | ≤ 1.2 | ≤ 1.2 | ≤ 1.2 | 1.01 to 2 | 1.01 to 2 | 1.01 to 2 | 1.01 to 2 | 2.01 to 5 | 2.01 to 5 | ≤ 1.5 | 3.01 to 4 | ≤ 1.5 | 1.51 to 2 | > 4 | 1.51 to 2 | fold induction at 1 µM (primary human NK cells; [17]): 1.01 to 2; fold induction at 1 µM (primary human NK cells; [18]): < 1; fold induction at 1 µM (primary human NK cells; [19]): < 1; fold induction at 10 µM (primary human NK cells; [20]): 2.01 to 5; fold induction at 10 µM (primary human NK cells; [21]): 1.01 to 2; fold induction at 10 µM (primary human NK cells; [22]): < 1; fold induction at 1 µM (primary human NK cells; [23]): 1.01 to 2; fold induction at 1 µM (primary human NK cells; [24]): < 1; fold induction at 1 µM (primary human NK cells; [25]): < 1; fold induction at 10 µM (primary human NK cells; [26]): > 5; fold induction at 10 µM (primary human NK cells; [27]): 1.01 to 2; fold induction at 10 µM (primary human NK cells; [28]): < 1; fold induction at 1.11 µM [2, 14]: ≤ 1.5; fold induction at 1.11 µM [2, 15]: < 2; fold induction at 1.11 µM [2, 16]: ≤ 1.5; fold induction at 10 µM [2, 14]: ≤ 1.5; fold induction at 10 µM [2, 15]: < 2; fold induction at 10 µM [2, 16]: ≤ 1.5

— patent US20220324835A1 (Nurix Therapeutics, Inc., priority 2018, published 2022)
